Assays:
[1] = system: Leukotriene C4 production in mouse peritoneal macrophages; assay: In vitro mouse peritoneal macrophage Leukotriene C4 inhibition; format: cell-based; conditions: zymosan stimulated, read-out: Percent Inhibition
Description: IN VITRO MOUSE PERITONEAL MACROPHAGE LEUKOTRIENE C4 INHIBITION
The test described below measures the ability of compounds to inhibit the production of Leukotriene C4 in mouse peritoneal macrophages.
Mice (female, CD-1, weighing 25 g) are euthanized by exposure to carbon dioxide. The pertoneal cavity is exposed by peeling back the abdominal skin. A 5 mL portion of media (M199 containing 1% fetal bovine serum, 100 units/mL of penicillin, 100 μg/mL streptomycin, 20 units/mL of heparin and no glutamine) is injected into the exposed peritoneal cavity of each mouse. The lavage fluid is removed and pooled to yield proximately 1×10^6 macrophages/mL. A 2 mL portion of lavage fluid is added to each well of a 24 well sterile multidish and the marcophages are allowed to adhere to the plate for 2 hours at 37° C. in a 5% carbon dioxide atmosphere. The media is removed and each well is washed with 2 mL of phosphate buffered saline (PBS). A 1 mL portion of media, without heparin, but containing 5 μCi/mL of 3H-myoinositol is added to each well and the plates are incubated overnight at 37° C. in a 5% carbon dioxide atmosphere. The media is removed and the cells are washed twice with 2 mL portions of PBS. A 1 mL portion of Puck's saline formulation A containing 1 mM calcium chloride, 1 mM magnesium chloride and 10 mM lithium chloride is added to each well. (The Puck's formulation is made first as a 10× solution which contains 4 g of potassium chloride, 80 g of sodium chloride and 10 g of glucose per liter. The Puck's saline formulation A is made using 10 mL of the 10× Puck's formulation, 0.47 mL of 7.5% sodium bicarbonate and 2 mL of 1M N-2-hydroxyethylpiperazine-N'-2-ethanesulfonic acid per 100 mL.)
Compounds are dissolved in dimethyl sulfoxide. Compounds are tested at concentrations of 10, 1 and 0.1 μM. Each concentration is tested in duplicate.
A 1 μL portion of compound solution or vehicle (DMSO) is added to each well and the plates are incubated for 15 minutes at 37° C. in a 5% carbon dioxide atmosphere. Zymosan is then added to provide a final concentration of 50 μg/mL in each well and the plate is incubated for 1 to 2 hours at 37° C. in a 5% carbon dioxide atmosphere.
Following incubation 200 μL portions of media are transferred to 12×75 mm tubes. The tubes are either assayed immediately or stored at -20° C. until they can be assayed.
The media is assayed for the presence of Leukotriene C4 by radioimmunoassay which is performed according to the manufacturer's instructions (Advanced Magnetics; Cambridge, Mass.). Inhibition of LTC4 production is calculated as the ratio of the amount of LTC4 formed in the presence (LTC4 +cpd) and absence (LTC4 no cpd)of compound according to the equation below. [formula] IC50 values (concentration of compound producing a 50% inhibition of LTC4 production) are calculated by linear regression analysis of percentage inhibition versus log compound concentration plots.

[2] = system: Leukotriene B4 production in rat blood; assay: Rat ex vivo Leukotriene B4 inhibition; format: in vivo; conditions: 50 mg/Kg oral, 2 hours post dose, ex vivo A23187 challenge
Description: RAT EX VIVO LEUKOTRIENE B4 INHIBITION
The test method described below measures the ability of a compound when administrated orally to rats to inhibit the production of Leukotriene B4 in their blood which is drawn and challenged.
Rats (CD, male, non-fasted, 250 g) are lightly anesthetized with carbon dioxide and an approximately 0.75 mL sample of whole blood is obtained via cardiac puncture. The sample is dispensed into 12×75 mm polypropylene tubes containing 8-10 μL of 10,000 units/mL heparin, mixed and then maintained on ice. The rats are allowed to recover approximately one hour then dosed orally with compound dissolved in PEG 400 at a 5 mL/Kg volume. Five (5) rats are utilized per group. Two (2) hours post dose the rats are again anesthetized with carbon dioxide and the blood sampled again via cardiac puncture.
Duplicate 200 μL portions of blood are added to 1.0 mL polypropylene tubes. A 10 μL portion of 1 mM A23 187 Calcium Ionophore in dimethyl sulfoxide/Tris buffer is added to each tube. The tubes are gently vortexed then incubated in a 37° C. water bath for 30 minutes. The tubes are then centrifuged at 4000 rpm for 10 minutes. 50 μL portions of plasma are transferred to 1.0 mL tubes containing 200 μL of methanol. The tubes are vortexed then placed in the freezer overnight.
The tubes are removed from the freezer then centrifuged at 4000 rpm for 10 minutes. 20 μL portions of the methanol/plasma supernatant and 10 μl methanol dilutions of LTB4 standard are transferred to 96 well v-bottom microtiter plates. The plates are vacuum dried at 40° C. A 40 μL portion of LTB4 radioimmunoassay buffer is added to each well. The plate is bath sonicated for 5 minutes then assayed according to the manufacturer's instructions (Advanced Magnetics; Cambridge, Mass.). Percent inhibition values are obtained by comparing the level of LTB4 in the post-dose samples to the level in the pre-dose samples according to the equation below. [formula]

Row | SMILES | inhibition at 0.1 µM [1] [%] | inhibition at 1 µM [1] [%] | inhibition at 10 µM [1] [%] | inhibition in vivo at 50 mg/kg [2] [%]
1 | CN(O)C(=O)Nc1cccc2c(NC(=O)N(C)O)cccc12 [Example 8, 1,1'-(1,5-Naphthalene)bis(3-hydroxy-3-methylurea)] | 55 | 76 | 91 | –
2 | COc1cc(-c2ccc(NC(=O)N(C)O)c(OC)c2)ccc1NC(=O)N(C)O [Example 11] | 42 | 100 | 99 | 4
3 | CN(O)C(=O)Nc1ccc(Oc2ccc(NC(=O)N(C)O)cc2)cc1 [Example 6, 4,4'-Oxybis(1-hydroxy-1-methyl-3-phenylurea)] | 48 | 99 | 99 | –
4 | CN(O)C(=O)Nc1cccc(NC(=O)N(C)O)c1 [Example 7, 1,1'-(m-Phenylene)bis(3-hydroxy-3-methylurea)] | -19 | 7 | 98 | 59
5 | CCc1cc(Cc2cc(CC)c(NC(=O)N(C)O)c(CC)c2)cc(CC)c1NC(=O)N(C)O [Example 4, 4,4'-Methylenebis(1-hydroxy-1-methyl-3-(2,6-diethylphenyl)urea)] | -24 | 6 | 67 | –
6 | CN(O)C(=O)N[C@H]1CC[C@H](NC(=O)N(C)O)CC1 [Example 9, trans-1,4-Cyclohexanebis(3-hydroxy-3-methylurea)] | 1 | 1 | -6 | 4
7 | O=C(NCCCCCCNC(=O)N(O)Cc1ccccc1)N(O)Cc1ccccc1 [Example 10, 1,1'-Hexamethylenebis(3-hydroxy-3-benzylurea)] | 7 | 94 | 94 | 8
8 | CN(O)C(=O)Nc1ccc(C(c2ccc(NC(=O)N(C)O)cc2)(C(F)(F)F)C(F)(F)F)cc1 [Example 5, 4,4'-(2,2-Hexafluoropropane)bis(1-hydroxy-1-methyl-3-phenylurea)] | 91 | 100 | 100 | –
